Test results from patent US9931324B2, “Indolizine derivatives and their use in neurodegenerative diseases” (Merck Patent GmbH, priority 2014, dated 2018).

How the values were obtained:
P2X7 [1] = biological target: T1, P2X7 (Homo sapiens, UniProt Q99572); experiment: Pore permeation assay (YO PRO dye uptake, BzATP-induced); assay type: cell-based; set-up: expressed in transfected cells; host or cells: HEK293; settings: HEK293 transfected with human P2X7 receptor, BzATP 10 uM, read-out: hP2X7 IC50
T1 sequence (Q99572 1-595): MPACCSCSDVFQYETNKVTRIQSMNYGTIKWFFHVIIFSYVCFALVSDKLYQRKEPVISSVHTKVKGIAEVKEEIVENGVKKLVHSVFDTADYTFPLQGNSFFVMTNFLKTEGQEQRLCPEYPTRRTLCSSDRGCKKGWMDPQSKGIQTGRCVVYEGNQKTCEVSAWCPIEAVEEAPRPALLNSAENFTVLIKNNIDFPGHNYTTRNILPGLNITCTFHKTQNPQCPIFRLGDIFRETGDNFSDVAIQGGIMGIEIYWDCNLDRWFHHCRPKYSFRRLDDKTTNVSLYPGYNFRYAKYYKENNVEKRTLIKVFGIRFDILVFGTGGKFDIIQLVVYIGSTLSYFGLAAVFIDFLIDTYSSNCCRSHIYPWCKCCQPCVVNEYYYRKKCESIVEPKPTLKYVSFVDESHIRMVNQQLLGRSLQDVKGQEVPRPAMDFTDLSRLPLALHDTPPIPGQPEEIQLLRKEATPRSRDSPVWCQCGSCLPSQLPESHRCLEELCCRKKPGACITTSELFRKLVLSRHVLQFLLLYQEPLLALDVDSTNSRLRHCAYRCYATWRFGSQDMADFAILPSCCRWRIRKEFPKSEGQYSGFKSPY
Description: Agonist-induced pore formation was determined by measuring cellular uptake of YO PRO fluorescence dye in HEK293 transfected with human P2X7 receptor. A HEK293 cell over expressing human P2X7 was harvested using HQTase reagent to detach the cells from T75 cm flask. The harvested cells are centrifuged @1200 rpm for 5 min at room temperature. The viability of cells was determined by Trypan blue dye and the cells are plated @10,000 cell/well in 50 ul volume in a 384W BD Poly lysine coated plate and incubated overnight at 37 C. After overnight incubation, the culture medium was replaced with 35 ul/well assay buffer (5 mM KCl, 0.1 mM CaCl2, 5 mM Glucose, 10 mM HEPES buffer pH7.4 containing 125 mM NaCl. The serial dilution of compounds was performed using Bravo liquid handling instrument and the compounds were added using Bravo to the cell assay plate starting at 2.5 uM with three dilutions for 10 points. The positive control inhibitor compound was added to column 23. The plate was shaken slowly on a plate shaker for 10 seconds. The cells were incubated with the compound for 20 minutes at room temperature. After the incubation period, YO PRO dye (1 uM) along with BzATP (10 uM) were added to cells at 10 ul/well. The plate was centrifuged at 1000 rpm for 5 seconds and incubated at room temperature for 30 minutes. The uptake of YO PRO dye into the cells was measured using Envision Fluorescence plate reader instrument (Perkin Elmer).

P2X7 [2] = biological target: T1, P2X7; experiment: IL-1β release assay in THP-1 cells (sandwich ELISA, BzATP-stimulated); assay type: cell-based; set-up: endogenous in cells; host or cells: THP-1 cells (PMA-differentiated, LPS-primed); settings: LPS primed, 0.8 mM BzATP, mature IL-1β release, read-out: hTHP-1/IL-ib IC50
Description: IL-1β release assay: The activation of P2X7 by ATP leads to a fast transient activation of cells resulting in influx of Ca^2+ followed by conversion of pro-IL-1β to active IL-1β. The functional activity of P2X7 compounds was measured by the release of mature IL-1β in the culture medium of THP-1 cells, detected by sandwich ELISA. Cells were maintained in complete growth medium (RPMI 1640+10% HI-FCS+2 mM L-glutamine+1× PS). […] THP-1 cells were harvested from the flask in 50 ml by centrifugation for 3 min at 100 g. The cells were resuspended to 2×10^5 cells/ml in medium supplemented with 0.5 μM PMA and incubated. The cells were washed and resuspended to 1.5×10^5 cells/ml in medium complemented with 10 ng/ml LPS, and the cells were primed for 4 h at 37° C., 5% CO2. After addition of 20 μL of prediluted test compounds, blank, standard and control reagents, cells were incubated for a further 20 min at 37° C. and stimulated with 0.8 mM BzATP for 30 minutes. The cells were centrifuged, supernatant was collected and the presence of mature IL-1β was detected using Dual human IL-1b kit following manufacturer's instruction. The tetrahydrobenzodiazepine analogs effectively modulated the activity of P2X7 in the cells as measured by the levels of pro-inflammatory cytokine IL-1β, which is released by the activation of P2X7 receptor.

Molecule	IC50 (P2X7 [1]) [nM]	IC50 (P2X7 [2]) [nM]
(R)-8-chloro-N-((4,4-difluoro-1-hydroxycyclohexyl)methyl)-3-((tetrahydrofuran-3-yl)methyl)indolizine-1-carboxamide [Compound 50]	10 to 100	101 to 500
O=C(NCC1CCC(F)(F)CC1)c1cc(I)n2cccc(Cl)c12 [Compound 9]	101 to 500	101 to 500
COCCc1cc(C(=O)NCC2CCCCC2)c2c(Cl)cccn12 [Compound 8, 8-chloro-N-(cyclohexylmethyl)-3-(2-methoxyethyl)-indolizine-1-carboxamide]	10 to 100	101 to 500
O=C(NCC1CCCCC1)c1cc(CCO)n2cccc(Cl)c12 [Compound 15, 8-chloro-N-(cyclohexylmethyl)-3-(2-hydroxyethyl)indolizine-1-carboxamide]	101 to 500	101 to 500
COCCc1cc(C(=O)NCC2(O)CCC(F)(F)CC2)c2c(Cl)cccn12 [Compound 53, 8-chloro-N-((4,4-difluoro-1-hydroxycyclohexyl)methyl)-3-(2-methoxyethyl)indolizine-1-carboxamide]	10 to 100	10 to 100
COCCc1cc(C(=O)NCC2(O)CCCC(F)(F)C2)c2c(C(F)(F)F)cccn12 (centres unmarked) [Compound 60, 3-(2-Methoxy-ethyl)-8-trifluoro methylindolizine-1-carboxylic Acid (3,3-difluoro-1-hydroxy-cyclohexylmethyl)-amide]	101 to 500	10 to 100
O=C(NCC1CCC(F)(F)CC1)c1cc(C2CCCO2)n2cccc(Cl)c12 (centres unmarked) [Compound 23, 8-Chloro-3-(tetrahydro-furan-2-yl)-indolizine-1-carboxylic Acid (4,4-difluoro-cyclohexyl methyl)-amide]	10 to 100	10 to 100
O=C(NCC1CCC(F)(F)CC1)c1cc(C2=CCOC2)n2cccc(Cl)c12 [Compound 21, 8-chloro-N-((4,4-difluorocyclohexyl)methyl)-3-(2,5-dihydrofuran-3-yl) indolizine-1-carboxamide]	101 to 500	101 to 500
O=C(NCC1(O)CCC(F)(F)CC1)c1cc(C2CCCO2)n2cccc(Cl)c12 (centres unmarked) [Compound 48, 8-Chloro-3-(tetrahydro-furan-2-yl)-indolizine-1-carboxylic Acid (4,4-difluoro-1-hydroxycyclohexyl methyl)-amide]	10 to 100	10 to 100
O=C(NCC1(O)CCC(F)(F)CC1)c1cc(CC2CCOC2)n2cccc(Cl)c12 (centres unmarked) [Compound 47, 8-chloro-N-((4,4-difluoro-1-hydroxycyclohexyl)methyl)-3-((tetrahydrofuran-3-yl)methyl)indolizine-1-carboxamide]	10 to 100	10 to 100
O=C(NCC1CCC(F)(F)CC1)c1cc(CC2CCOC2)n2cccc(Cl)c12 (centres unmarked) [Compound 30, 8-chloro-N-((4,4-difluorocyclo-hexyl)methyl)-3-((tetrahydrofuran-3-yl)methyl)indolizine-1-carboxamide]	10 to 100	101 to 500
O=C(NCC1(O)CCCC(F)(F)C1)c1cc(C2CCOC2)n2cccc(Cl)c12 (centres unmarked) [Compound 65, 8-Chloro-3-(tetrahydro-furan-3-yl)-indolizine-1-carboxylic Acid (3,3-difluoro-1-hydroxycyclohexyl methyl)-amide]	10 to 100	10 to 100
COCCc1cc(C(=O)NCC2(O)CCCC(C)(C)C2)c2c(Cl)cccn12 (centres unmarked) [Compound 10, 8-chloro-N-((1-hydroxy-3,3-dimethylcyclohexyl)methyl)-3-(2-methoxyethyl) indolizine-1-carboxamide]	10 to 100	10 to 100
COCCc1cc(C(=O)NCC2CCCC(F)(F)C2)c2c(Cl)cccn12 (centres unmarked) [Compound 31, 8-chloro-N-((3,3-difluorocyclohexyl)methyl)-3-(2-methoxyethyl)indolizine-1-carboxamide]	10 to 100	10 to 100
COCCc1cc(C(=O)NCC2(O)CCCCCC2)c2c(Cl)cccn12 [Compound 35, 8-chloro-N-((1-hydroxycycloheptyl)methyl)-3-(2-methoxyethyl)indolizine-1-carboxamide]	10 to 100	10 to 100
O=C(NCC1CCCC(F)(F)C1)c1cc(C2CCOC2)n2cccc(Cl)c12 (centres unmarked) [Compound 39, 8-Chloro-3-(tetrahydro-furan-3-yl)-indolizine-1-carboxylic Acid (3,3-difluoro-cyclohexyl methyl)-amide]	10 to 100	101 to 500

The remaining lines, values ahead:

IC50 (P2X7 [1]) [nM]	IC50 (P2X7 [2]) [nM]	Molecule
< 10	10 to 100	O=C(NCC1CCCC(F)(F)C1)c1cc(C2CCCO2)n2cccc(Cl)c12 (centres unmarked) [Compound 17, 8-Chloro-3-(tetrahydro-furan-2-yl)-indolizine-1-carboxylic Acid (3,3-difluoro-cyclohexylmethyl)-amide]
10 to 100	101 to 500	COCCc1cc(C(=O)NC[C@@]2(O)CCC[C@@H](C)C2)c2c(C)cccn12 [Compound 16, 3-(2-Methoxy-ethyl)-8-methyl-indolizine-1-carboxylic Acid ((1R,3R)-1-hydroxy-3-methylcyclohexylmethyl)-amide]
10 to 100	10 to 100	O=C(NCC1CCC(F)(F)CC1)c1cc(C2CCOC2)n2cccc(Cl)c12 (centres unmarked) [Compound 40, 8-chloro-N-((4,4-difluorocyclohexyl)methyl)-3-(tetrahydro-furan-3-yl)indolizine-1-carboxamide]
10 to 100	10 to 100	O=C(NCC1CCC(F)(F)CC1)c1cc(C2=COCC2)n2cccc(Cl)c12 [Compound 14, 8-chloro-N-((4,4-difluorocyclohexyl)methyl)-3-(4,5-dihydrofuran-3-yl)indolizine-1-carboxamide]
< 10	10 to 100	COCCc1cc(C(=O)NCC2(O)CCCC(F)(F)C2)c2c(Cl)cccn12 (centres unmarked) [Compound 62, 8-Chloro-3-(2-methoxy-ethyl)-indolizine-1-carboxylic Acid (3,3-difluoro-1-hydroxycyclohexylmethyl)-amide]
< 10	10 to 100	COCCc1cc(C(=O)NCC2CCC(F)(F)C(C)C2)c2c(Cl)cccn12 (centres unmarked) [Compound 11, 8-chloro-N-((4,4-difluoro-3-methylcyclohexyl)methyl)-3-(2-methoxyethyl) indolizine-1-carboxamide]
10 to 100	10 to 100	CCOCCc1cc(C(=O)NCC2(O)CCCC(F)(F)C2)c2c(Cl)cccn12 (centres unmarked) [Compound 70, 8-Chloro-3-(2-ethoxy-ethyl)-indolizine-1-carboxylic Acid (3,3-difluoro-1-hydroxy-cyclohexylmethyl)-amide]
10 to 100	101 to 500	O=C(NCC1CCCC(F)(F)C1)c1cc(CCO)n2cccc(Cl)c12 (centres unmarked) [Compound 45, 8-chloro-N-((3,3-difluorocyclohexyl)methyl)-3-(2-hydroxyethyl)indolizine-1-carboxamide]
10 to 100	101 to 500	O=C(NC[C@@]1(O)CCCC(F)(F)C1)c1cc(C2CCOC2)n2cccc(Cl)c12 (stereo partly drawn) [Compound 66, 8-chloro-N—(((R)-3,3-difluoro-1-hydroxycyclohexyl)methyl)-3-(tetrahydrofuran-3-yl)indolizine-1-carboxamide]
